# Source: PubChem BioAssay (NCI)
# Several values for one entry are separate records, joined by “and”; a condition that tells them apart may be missing. Identical values can stand only once.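 The compound was tested at five concentrations on cells cultured in 96-well plates, with a 48-hour exposure period. GI50 marks 50% less growth. At the TGI there is no net growth.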
# Legend:
# Test in all cases: NCI tumour cell line growth inhibition, 48 h
# U251 CNS = tested on: U251 CNS
# RXF 393 renal = tested on: RXF 393 renal
# HS 578T breast = tested on: HS 578T breast
# DU-145 prostate = tested on: DU-145 prostate
# M14 melanoma = tested on: M14 melanoma
# HL-60(TB) leukemia = tested on: HL-60(TB) leukemia
# CCRF-CEM leukemia = tested on: CCRF-CEM leukemia
# LOX IMVI melanoma = tested on: LOX IMVI melanoma
# A549 NSCLC = tested on: A549 NSCLC
# UO-31 renal = tested on: UO-31 renal
SMILES,GI50 (U251 CNS),TGI (U251 CNS),GI50 (RXF 393 renal),TGI (RXF 393 renal),GI50 (HS 578T breast),TGI (HS 578T breast),GI50 (DU-145 prostate),TGI (DU-145 prostate),GI50 (M14 melanoma),TGI (M14 melanoma),GI50 (HL-60(TB) leukemia),TGI (HL-60(TB) leukemia),GI50 (CCRF-CEM leukemia),TGI (CCRF-CEM leukemia),GI50 (LOX IMVI melanoma),TGI (LOX IMVI melanoma),GI50 (A549 NSCLC),TGI (A549 NSCLC),GI50 (UO-31 renal),TGI (UO-31 renal)
CCOc1cc(/C=C/C(=O)CC(=O)/C=C/c2ccc(OC(=O)CNc3nc4ccc(OC)cc4s3)c(OCC)c2)ccc1OC(=O)CNc1nc2ccc(OC)cc2s1,3.93 µM,14.5 µM,2900 nM,17 µM,3.16 µM,23.9 µM,3.17 µM,12.3 µM,5180 nM,22.5 µM,2770 nM,15.2 µM,1960 nM,5.46 µM,3280 nM,12.1 µM,4.94 µM,31 µM,2580 nM,> 100 µM
CN1CCN(CCCOC(=O)c2c3c(n4ccccc24)C(=O)c2ncccc2C3=O)CC1,< 0.01 µM,0.0768 µM,< 11.8 nM,0.0303 µM,< 0.0268 µM,1.15 µM,< 0.01 µM,1.3 µM,< 14.9 nM,0.253 µM,68.4 nM,14.6 µM,41 nM,> 30.4 µM,< 10 nM,0.0334 µM,< 0.01 µM,0.0593 µM,< 10 nM,–
CN(C)CCN1C(=O)c2cccc3cc(N)cc(c23)C1=O,2.85 µM,> 46.7 µM and 20.6 µM,–,18.1 µM and 10.6 µM,10.4 µM,50.9 µM and 21.2 µM,1.59 µM,29.8 µM and 12.9 µM,–,16.7 µM and 8.69 µM,5290 nM,59.2 µM and 16.2 µM,3450 nM,> 50.7 µM and 20 µM,2180 nM,> 31.3 µM and 7.29 µM,0.912 µM and 1.51 µM,> 21.5 µM and 9.09 µM,2090 nM,43.1 µM and 12.8 µM
O=C(Nc1ccc(Nc2ccc3c(c2)C(=O)c2ccccc2C3=O)c2c1C(=O)c1ccccc1C2=O)c1ccccc1,–,98.7 µM,–,> 96.6 µM,–,> 91.9 µM,–,> 100 µM,–,> 100 µM,–,> 100 µM,–,> 72.8 µM,–,> 100 µM,–,> 100 µM,–,> 100 µM
CC(C)(Sc1cc(C(C)(C)C)c(O)c(C(C)(C)C)c1)Sc1cc(C(C)(C)C)c(O)c(C(C)(C)C)c1,–,> 100 µM,–,> 100 µM,–,> 100 µM,–,> 100 µM,–,> 100 µM,–,3.08 µM,–,> 100 µM,–,> 100 µM,–,> 100 µM,–,> 100 µM
C=C(C)[C@@H]1CC[C@]2(C(=O)OC)CC[C@]3(C)[C@H](CC[C@@H]4[C@@](C)(CCc5nn[nH]n5)[C@H](C(=C)C)CC[C@]43C)[C@@H]12,15.4 µM,32.4 µM,15700 nM,30.1 µM,19.8 µM,53.8 µM,16 µM,32.4 µM,27500 nM,> 100 µM,19000 nM,62.3 µM,6720 nM,37.2 µM,16000 nM,29.5 µM,12.4 µM,34.9 µM,10900 nM,23 µM
OC(c1ccccc1)c1c(-c2ccccc2)[nH]c(-c2ccccc2)c1C(O)c1ccccc1 (centres undefined),–,18.5 µM,–,10.3 µM,–,18.9 µM,–,20 µM,–,11.8 µM,–,4.24 µM,–,6.08 µM,–,7.37 µM,–,18.9 µM,–,5.78 µM
CCn1c(-c2nonc2N)nc2cnc(Oc3cccc(NC(=O)c4ccc(OCCN5CCOCC5)cc4)c3)cc21,7.17 µM,> 25 µM,1310 nM,12.9 µM,0.0149 µM,8.26 µM,5.43 µM,> 25 µM,12700 nM,> 25 µM,10300 nM,> 25 µM,671 nM,> 25 µM,3100 nM,> 25 µM,2.52 µM,> 25 µM,8.9 nM,5.07 µM
CN1CCC2(CC1)C(=O)Nc1cc(NC(=O)c3ccc4c(c3)C[C@@H]3C(C)(C)[C@H](O)[C@H](F)C[C@@]3(C)O4)ccc12,0.0472 µM,16.4 µM,49.7 nM,10.6 µM,0.0232 µM,2.24 µM,10.6 µM,57.6 µM,549 nM,4.37 µM,84.2 nM,13.7 µM,92 nM,> 100 µM,550 nM,12.5 µM,2.74 µM,37.2 µM,4670 nM,19.1 µM
C[C@]12CC[C@H]3[C@@H](CCC4=CC(=O)CC[C@@]43C)[C@]1(O)CC[C@]2(O)C(=O)CO,–,> 100 µM,–,> 100 µM,–,> 100 µM,–,> 100 µM,–,> 100 µM,–,> 100 µM,–,> 100 µM,–,> 100 µM,–,> 100 µM,–,> 100 µM
CCN(CC)CCN1C(=O)C2C3C(C)=CC(OC(C)=O)(CC3C)C2C1=O (centres undefined),> 100 µM,> 100 µM,> 100000 nM,> 100 µM,75.3 µM,> 100 µM,> 100 µM,> 100 µM,> 100000 nM,> 100 µM,> 100000 nM,> 100 µM,> 100000 nM,> 100 µM,> 100000 nM,> 100 µM,> 100 µM,> 100 µM,> 100000 nM,> 100 µM
COc1cc2c(cc1OCCCCCOc1ccc(-c3nc4ccccc4s3)cc1)N=C[C@@H]1CCCN1C2=O,1.47 µM,16.1 µM,1460 nM,5.43 µM,2.02 µM,7.68 µM,2.08 µM,13 µM,1460 nM,9.08 µM,1350 nM,8.72 µM,2480 nM,> 100 µM,983 nM,4.37 µM,5.29 µM,20.4 µM,2500 nM,13.4 µM
N#Cc1nc2cc(Cl)c(Cl)cc2nc1-c1ccc(Cl)cc1,19.3 µM,39.3 µM,11200 nM,> 42.6 µM,17.1 µM,70.2 µM,49.6 µM,> 100 µM,> 85300 nM,> 100 µM,> 100000 nM,> 100 µM,8610 nM,25.7 µM,71000 nM,> 100 µM,13.8 µM,> 46.6 µM,34700 nM,> 100 µM
O=C(c1ccccc1)c1nc2ccc(Cl)cc2cc1C(Br)Br,–,0.674 µM,–,0.361 µM,–,0.59 µM,–,1.97 µM,–,5.65 µM,–,1.07 µM,–,7.11 µM,–,3.7 µM,–,3.31 µM,–,1.27 µM
COc1cc(OC)c(OC)cc1/C=C/c1ccccn1,–,> 10 µM,–,> 10 µM,–,> 10 µM,–,> 10 µM,–,> 10 µM,–,> 10 µM,–,> 10 µM,–,> 10 µM,–,> 10 µM,–,> 10 µM
COc1cccc2c1C(=O)c1c(O)c3c(c(O)c1C2=O)C[C@@](O)(/C(C)=N/NC(=O)c1cccc([N+](=O)[O-])c1)C[C@@H]3OC1CC(N)C(O)C(C)O1 (some centres undefined),0.22 µM,14 µM,494 nM,2.21 µM,0.561 µM,5.5 µM,0.272 µM,1.81 µM,324 nM,1.51 µM,146 nM,0.923 µM,167 nM,4.33 µM,146 nM,15.4 µM,0.362 µM,11.8 µM,882 nM,> 22 µM
Clc1ccc(NCNC2Nc3ccccc3N2)cc1Cl,–,> 100 µM,–,> 100 µM,–,> 100 µM,–,> 100 µM,–,> 100 µM,–,> 100 µM,–,> 100 µM,–,> 100 µM,–,> 100 µM,–,> 100 µM
COc1cc(-c2csc(NC(=O)Nc3ccc(Cl)cc3)n2)cc(OC)c1OC,3.35 µM,13.1 µM,3910 nM,13.9 µM,3.58 µM,20.3 µM,3.4 µM,17.3 µM,2270 nM,5.92 µM,2790 nM,6.83 µM,3440 nM,> 49.9 µM,2590 nM,7.59 µM,3.15 µM,13.4 µM,2350 nM,7.68 µM
N#CSc1c[nH]c2ccc(/C=C/C(=O)/C=C(O)/C=C/c3ccc4[nH]cc(SC#N)c4c3)cc12,1.17 µM,9.09 µM,538 nM,2.93 µM,2.98 µM,35.2 µM,1.92 µM,4.56 µM,864 nM,3.58 µM,902 nM,4.34 µM,612 nM,8.08 µM,483 nM,1.83 µM,3.25 µM,14.7 µM,344 nM,1.66 µM
COc1ccc(-c2cc(=O)c3c(C)ccnc3[nH]2)cc1,6.3 µM,> 100 µM,–,41.6 µM,–,77.1 µM,–,> 100 µM,–,> 100 µM,4370 nM,17.3 µM,–,44.8 µM,–,> 100 µM,–,> 100 µM,–,> 100 µM
CCN(Cc1ccccc1)c1ccc(/C=C2\COc3ccccc3C2=O)cc1,> 1000 µM,> 1000 µM,758000 nM,> 1000 µM,> 1000 µM,> 1000 µM,> 1000 µM,> 1000 µM,330000 nM,> 1000 µM,221000 nM,> 1000 µM,73500 nM,> 1000 µM,243000 nM,> 1000 µM,> 1000 µM,> 1000 µM,286000 nM,> 1000 µM
CCCCCOC(=O)c1c(C)[nH]c(/C=C2\N=C(c3ccc[nH]3)C=C2OC)c1C,0.0219 µM,0.461 µM,66.4 nM,0.9 µM,0.0211 µM,0.172 µM,0.0371 µM,1.68 µM,20.4 nM,0.0481 µM,26.3 nM,0.281 µM,19.4 nM,1.99 µM,11.5 nM,0.025 µM,0.0293 µM,0.184 µM,21 nM,0.0689 µM
C/C(=C1\C(=O)Nc2ccccc21)c1cccc(/C(C)=C2/C(=O)Nc3ccccc32)n1,7.6 µM,> 100 µM,12300 nM,58.7 µM,4.1 µM,> 100 µM,2.93 µM,> 100 µM,6840 nM,> 100 µM,16000 nM,> 100 µM,6550 nM,> 100 µM,8400 nM,31 µM,7.38 µM,> 100 µM,24500 nM,> 100 µM
Cc1cc(NC(=O)NCCCOc2ccc(N3C(N)=NC(N)=NC3(C)C)cc2Cl)ccc1S(=O)(=O)F,0.492 µM,19.7 µM,13500 nM,> 100 µM,2.77 µM,35 µM,0.786 µM,> 62.4 µM,2420 nM,> 100 µM,647 nM,28.9 µM,561 nM,> 63.5 µM,479 nM,> 100 µM,0.412 µM,> 100 µM,> 82400 nM,> 100 µM
CC[C@@H]1C(=O)N(C)c2cnc(Nc3ccc(C(=O)NC4CCC(N5CCN(CC6CC6)CC5)CC4)cc3OC)nc2N1C(C)C (some centres undefined),0.0263 µM and 0.0276 µM,> 7.97 µM and 2.14 µM,34.9 nM and 39.3 nM,> 9.08 µM and 4.9 µM,0.0323 µM and 0.111 µM,1.97 µM,0.0118 µM and 0.0379 µM,> 10 µM and 16.8 µM,9.63 nM and 34.9 nM,> 3.81 µM and 2.39 µM,2.86 nM and < 16.7 nM,0.0596 µM and 0.0871 µM,9.74 nM and < 10 nM,> 7.37 µM and 4.22 µM,25.4 nM and 33.9 nM,1.6 µM and 1.67 µM,0.0308 µM and 0.0348 µM,–,234 nM and 345 nM,> 10 µM and 7.53 µM
C=CC(=O)N1CCN([C@@H](CC2CC2)c2ccc([C@H](C)Nc3ncc4c(n3)N(CC)C(=O)OC4)cc2)CC1,11.8 µM,26.3 µM,4620 nM,20.9 µM,9.19 µM,55.6 µM,12.7 µM,25.4 µM,15500 nM,30.1 µM,2280 nM,12.7 µM,4290 nM,25.2 µM,11100 nM,26.6 µM,11.4 µM,28.7 µM,10800 nM,26.3 µM
O=c1cc(-c2cccc(Cl)c2)[nH]c2cc3c(cc12)OCO3,–,10.3 µM,164 nM and 626 nM,75 µM and 9.8 µM,–,1.74 µM,–,0.863 µM,248 nM,75 µM and 13.9 µM,263 nM,7.5 µM and 1.39 µM,–,75 µM and 22.6 µM,434 nM,38.8 µM and 40.2 µM,0.829 µM,75 µM and 18.1 µM,743 nM,75 µM and > 100 µM
